According to patent US20210269434A1, “TRICYCLIC COMPOUNDS AS INHIBITORS OF KRAS” (Incyte Corporation, priority 2020, published 2021):

Columns and labels:
KRAS G12C = KRAS G12C (Homo sapiens, UniProt P01116, G12C); assay: GDP-GTP exchange assay (KRAS_G12C exchange); format: biochemical; details: bodipy-GDP loaded KRAS G12C 2.5 nM, SOS1 150 nM, GppNHp; 2 hours pre-incubation, 2 hours reaction; read-out: G12C_exchange
Protocol: Example A. GDP-GTP Exchange Assay
The inhibitor potency of the exemplified compounds was determined in a fluorescence based guanine nucleotide exchange assay, which measures the exchange of bodipy-GDP (fluorescently labeled GDP) for GppNHp (Non-hydrolyzable GTP analog) to generate the active state of KRAS in the presence of SOS1 (guanine nucleotide exchange factor). Inhibitors were serially diluted in DMSO and a volume of 0.1 μL was transferred to the wells of a black low volume 384-well plate. 5 μL/well volume of bodipy-loaded KRAS G12C diluted to 5 nM in assay buffer (25 mM Hepes pH 7.5, 50 mM NaCl, 10 mM MgCl2 and 0.01% Brij-35) was added to the plate and pre-incubated with inhibitor for 2 hours at ambient temperature. Appropriate controls (enzyme with no inhibitor or with a G12C inhibitor (AMG-510)) were included on the plate. The exchange was initiated by the addition of a 5 μL/well volume containing 1 mM GppNHp and 300 nM SOS1 in assay buffer. The 10 μL/well reaction concentration of the bodipy-loaded KRAS G12C, GppNHp, and SOS1 were 2.5 nM, 500 uM, and 150 nM, respectively. The reaction plates were incubated at ambient temperature for 2 hours, a time estimated for complete GDP-GTP exchange in the absence of inhibitor. For the KRAS G12D and G12V mutants, similar guanine nucleotide exchange assays were used with 2.5 nM as final concentration for the bodipy loaded KRAS proteins and with 4 hours and 3 hours incubation after adding GppNHp-SOS1 mixture for G12D and G12V respectively. A cyclic peptide described to selectively bind G12D mutant (Sakamoto et al., BBRC 484.3 (2017), 605-611) or internal compounds with confirmed binding were used as positive controls in the assay plates. Fluorescence intensities were measured on a PheraStar plate reader instrument (BMG Labtech) with excitation at 485 nm and emission at 520 nm.
Either GraphPad prism or XLfit was used to analyze the data. The IC50 values were derived by fitting the data to a four parameter logistic equation producing a sigmoidal dose-response curve with a variable Hill coefficient. Prism equation: Y=Bottom+(Top−Bottom)/(1+10^((Log lC50−X)*Hill slope)); XLfit equation: Y=(A+((B−A)/(1+((X/C)^D)))) where X is the logarithm of inhibitor concentration and Y is the response.

[1] = tested on: MIA PaCa-2 (KRAS G12C) cells; assay: Cellular pERK HTRF assay (KRAS_G12C pERK); format: cell-based, human; details: Homo sapiens, MIA PaCa-2, 4 hours incubation, read-out: G12C_pERK
Protocol: Example C: Cellular pERK HTRF Assay
MIA PaCa-2 (KRAS G12C; ATCC® CRL-1420), A427 (KRAS G12D; ATCC® HTB53), HPAF-II (KRAS G12D; ATCC® CRL-1997) and NCI-H838 (KRAS WT; ATCC® CRL-5844) cells are purchased from ATCC and maintained in RPMI 1640 media supplemented with 10% FBS (Gibco/Life Technologies). The cells are plated at 5000 cells per well (8 uL) into Greiner 384-well low volume, flat-bottom, tissue culture treated white plates and incubated overnight at 37° C., 5% CO2. The next morning, test compound stock solutions are diluted in media at 3× the final concentration, and 4 uL are added to the cells. The plate is mixed by gentle rotation for 30 seconds (250 rpm) at room temperature. The cells are incubated with the KRAS G12C and G12D compounds for 4 hours or 2 hours respectively at 37° C., 5% CO2.
4 uL of 4× lysis buffer with blocking reagent (1:25) (Cisbio) are added to each well and plates are rotated gently (300 rpm) for 30 minutes at room temperature. 4 uL per well of Cisbio anti Phospho-ERK 1/2 d2 is mixed with anti Phospho-ERK 1/2 Cryptate (1:1) are added to each well, mixed by rotation and incubated overnight in the dark at room temperature. Plates are read on the Pherastar plate reader at 665 nm and 620 nm wavelengths. IC50 determination is performed by fitting the curve of inhibitor percent inhibition versus the log of the inhibitor concentration using the GraphPad Prism 7 software.

KRAS G12C, sequence (P01116 1-188 isoform P01116-2 G12C): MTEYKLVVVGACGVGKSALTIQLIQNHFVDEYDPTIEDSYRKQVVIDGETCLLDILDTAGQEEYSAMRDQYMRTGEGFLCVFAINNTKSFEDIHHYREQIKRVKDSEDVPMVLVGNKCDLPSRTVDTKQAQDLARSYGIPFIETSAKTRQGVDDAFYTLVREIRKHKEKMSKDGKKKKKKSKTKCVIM

IC50 (KRAS G12C)	IC50 [1]	Structure (SMILES)
≤ 100 nM	1000 to 5000 nM	C=CC(=O)N1CCCC(n2cnc3c(OC[C@@H]4CCCN4C)nc4c(F)c(-c5cc(O)cc6ccccc56)c(Cl)cc4c32)C1 (mixture of isomers) [Example 5, 1-(3-(8-chloro-6-fluoro-7-(3-hydroxynaphthalen-1-yl)-4-(((S)-1-methylpyrrolidin-2-yl)methoxy)-1H-imidazo[4,5-c]quinolin-1-yl)piperidin-1-yl)prop-2-en-1-one]
≤ 100 nM	≤ 100 nM	C=CC(=O)N1CCC(n2cnc3c(OC[C@@H]4CCCN4C)nc4c(F)c(-c5cc(O)cc6ccccc56)c(Cl)cc4c32)C1 (mixture of isomers) [Example 7, 1-(3-(8-chloro-6-fluoro-7-(3-hydroxynaphthalen-1-yl)-4-(((S)-1-methyl-pyrrolidin-2-yl)methoxy)-1H-imidazo[4,5-c]quinolin-1-yl)pyrrolidin-1-yl)prop-2-en-1-one]
≤ 100 nM	≤ 100 nM	C=CC(=O)N1C[C@H](C)[C@@H](n2cnc3c(N4CC(N(C)C)C4)nc4c(F)c(-c5cc(O)cc6ccccc56)c(Cl)cc4c32)C1 (racemic) [Example 31a, 1-((trans)-3-(8-chloro-4-(3-(dimethylamino)azetidin-1-yl)-6-fluoro-7-(3-hydroxynaphthalen-1-yl)-1H-imidazo[4,5-c]quinolin-1-yl)-4-methylpyrrolidin-1-yl)prop-2-en-1-one]
100 to 1000 nM	1000 to 5000 nM	C=CC(=O)N1CCC(n2cnc3c(=O)n(C)c4c(F)c(-c5cc(O)cc6ccccc56)c(Cl)cc4c32)C1 (racemic) [Example 33, 1-(1-acryloylpyrrolidin-3-yl)-8-chloro-6-fluoro-7-(3-hydroxynaphthalen-1-yl)-5-methyl-1,5-dihydro-4H-imidazo[4,5-c]quinolin-4-one]
≤ 100 nM	≤ 100 nM	C=CC(=O)N1C[C@H](OC)[C@@H](n2cnc3c(N4CC(N(C)C)C4)nc4c(F)c(-c5cc(O)cc6ccccc56)c(Cl)cc4c32)C1 (relative stereo) [Example 30b, 1-((trans)-3-(8-chloro-4-(3-(dimethylamino)azetidin-1-yl)-6-fluoro-7-(3-hydroxynaphthalen-1-yl)-1H-imidazo[4,5-c]quinolin-1-yl)-4-methoxypyrrolidin-1-yl)prop-2-en-1-one]
≤ 100 nM	100 to 1000 nM	C=CC(=O)N1CCC(n2cnc3c(OC[C@@H]4CCCN4C)nc4c(F)c(-c5cc(O)cc6ccccc56)c(Cl)cc4c32)CC1 (single isomer, unassigned) [Example 1a]
≤ 100 nM	100 to 1000 nM	C=CC(=O)N1CC(n2cnc3c(OC[C@@H]4CCCN4C)nc4c(F)c(-c5cc(O)cc6ccccc56)c(Cl)cc4c32)C1 (single isomer, unassigned) [Example 6a]
≤ 100 nM	≤ 100 nM	C=CC(=O)N1C[C@H](C)[C@@H](n2cnc3c(OC[C@@H]4CCCN4C)nc4c(F)c(-c5cc(O)cc6ccccc56)c(Cl)cc4c32)C1 (single isomer, unassigned) [Example 29b]

The remaining lines, values behind:

Structure (SMILES)	IC50 (KRAS G12C)	IC50 [1]
C=CC(=O)N1CCC(n2cnc3c(OC[C@@H]4CCCN4C)nc4c(F)c(-c5cccc6ccccc56)c(Cl)cc4c32)CC1CC#N (mixture of isomers) [Example 38, 2-(1-acryloyl-4-(8-chloro-6-fluoro-4-(((S)-1-methylpyrrolidin-2-yl)methoxy)-7-(naphthalen-1-yl)-1H-imidazo[4,5-c]quinolin-1-yl)piperidin-2-yl)acetonitrile]	≤ 100 nM	≤ 100 nM
C=CC(=O)N1CCC(n2cnc3c(OC[C@@H]4CCCN4C)nc4c(F)c(-c5cccc(Cl)c5C)c(Cl)cc4c32)CC1CC#N (mixture of isomers) [Example 41, 2-(1-acryloyl-4-(8-chloro-7-(3-chloro-2-methylphenyl)-6-fluoro-4-(((S)-1-methylpyrrolidin-2-yl)methoxy)-1H-imidazo[4,5-c]quinolin-1-yl)piperidin-2-yl)acetonitrile]	≤ 100 nM	≤ 100 nM
C=CC(=O)N1CCC(n2cnc3c(OC[C@@H]4CCCN4C)nc4c(F)c(-c5cccc(F)c5C)c(Cl)cc4c32)CC1CC#N (mixture of isomers) [Example 42, 2-(1-acryloyl-4-(8-chloro-6-fluoro-7-(3-fluoro-2-methylphenyl)-4-(((S)-1-methylpyrrolidin-2-yl)methoxy)-1H-imidazo[4,5-c]quinolin-1-yl)piperidin-2-yl)acetonitrile]	≤ 100 nM	≤ 100 nM
C=CC(=O)N1CCC(n2cnc3c(OC[C@@H]4CCCN4C)nc4c(F)c(-c5cccc(C)c5C)c(Cl)cc4c32)CC1CC#N (mixture of isomers) [Example 43, 2-(1-acryloyl-4-(8-chloro-7-(2,3-dimethylphenyl)-6-fluoro-4-(((S)-1-methyl-pyrrolidin-2-yl)methoxy)-1H-imidazo[4,5-c]quinolin-1-yl)piperidin-2-yl)acetonitrile]	≤ 100 nM	≤ 100 nM
C=CC(=O)N1CCC(n2cnc3c(OC[C@@H]4CCCN4C)nc4c(F)c(-c5cccc6c5CCC6)c(Cl)cc4c32)CC1CC#N (mixture of isomers) [Example 44, 2-(1-acryloyl-4-(8-chloro-7-(2,3-dihydro-1H-inden-4-yl)-6-fluoro-4-(((S)-1-methylpyrrolidin-2-yl)methoxy)-1H-imidazo[4,5-c]quinolin-1-yl)piperidin-2-yl)acetonitrile]	≤ 100 nM	≤ 100 nM
C=CC(=O)N1CCC(n2cnc3c(OC[C@@H]4CCCN4C)nc4c(F)c(-c5c(O)cccc5F)c(Cl)cc4c32)CC1 (single isomer, unassigned) [Example 2a]	100 to 1000 nM	1000 to 5000 nM
C=CC(=O)N1CCC(n2cnc3c(OC[C@@H]4CCCN4C)nc4c(F)c(-c5cccc(O)c5F)c(Cl)cc4c32)CC1 (single isomer, unassigned) [Example 3a]	1000 to 5000 nM	–
C=CC(=O)N1CCC(n2cnc3c(OC[C@@H]4CCCN4C)nc4c(F)c(-c5c(C)ccc6[nH]ncc56)c(Cl)cc4c32)CC1 (single isomer, unassigned) [Example 4a]	≤ 100 nM	100 to 1000 nM
C=CC(=O)N1CCC(n2nnc3c(OC[C@@H]4CCCN4C)nc4c(F)c(-c5cc(O)cc6ccccc56)c(Cl)cc4c32)CC1 (single isomer, unassigned) [Example 14a]	≤ 100 nM	≤ 100 nM
C=CC(=O)N1CCC(n2cnc3c(OC[C@@H]4CCCN4C)nc4c(F)c(-c5cc(O)cc6ccccc56)c(Cl)cc4c32)CC1CC#N (single isomer, unassigned) [Example 36a]	≤ 100 nM	≤ 100 nM
C=CC(=O)N1CCC(n2cnc3c(OCc4ccnn4C)nc4c(F)c(-c5cc(O)cc6ccccc56)c(Cl)cc4c32)CC1 [Example 8, 1-(4-(8-chloro-6-fluoro-7-(3-hydroxynaphthalen-1-yl)-4-((1-methyl-1H-pyrazol-5-yl)methoxy)-1H-imidazo[4,5-c]quinolin-1-yl)piperidin-1-yl)prop-2-en-1-one]	100 to 1000 nM	–
C=CC(=O)N1CC(n2c(=O)[nH]c3c(=O)n(-c4ccccc4)c4nc(-c5cc(O)cc6ccccc56)c(F)cc4c32)C1 [Example 28, 1-(1-acryloylazetidin-3-yl)-8-fluoro-7-(3-hydroxynaphthalen-1-yl)-5-phenyl-3,5-dihydro-1H-imidazo[4,5-c][1,8]naphthyridine-2,4-dione]	100 to 1000 nM	–
